Laboratory results published in patent US10550383B2, “Galvanotaxis assay for quantitative assessment of the metastatic potential of cancer cells” (Ohio State Innovation Foundation, priority 2013, dated 2020).

Tests used:
Type in all cases: cell-based, human
SCP2 cells [1] = experiment: visualization of actin filaments by phalloidin staining and fluorescence microscopy; settings: EGF 100 ng/mL, one hour, no induced electric field (FIG. 6a middle panel)
Method: The present invention allows the visualization of actin filaments that form the cytoskeleton of the SCP2 cells and play a crucial role in cell migration, when induced electric fields are applied in a non-contact manner as described earlier (FIG. 6). The images are quantified to determine the actin filament distribution within the cell as represented by the fluorescence intensity. In one embodiment, SCP2 cells are plated on a single-well, 60 mm diameter culture plate, allowed to migrate freely for an hour, and then fixed and stained with phalloidin-fluorophore conjugate for visualization of the actin filaments (FIG. 6a, left panel). […] These images have also been quantified after importing into MATLAB (FIGS. 18-20). […]
Analysis of actin filament distribution: images obtained from phalloidin and fluorescence microscopy are imported into MATLAB (2014a, Mathworks, Inc., Massachusetts, U.S.A.). […] Intensities are then separated into red, green, and blue so that the background and nuclei intensities may be filtered out and only the green fluorescence from the actin filaments is extracted. Actin fluorescence intensities are analyzed versus cell length (longer dimension being the length), and averaged.

MCF-10A cells = experiment: modified transmembrane assay, migration of MCF-10A cells; settings: 50 ng/mL EGF in lower chamber, 16 hours, no induced electric field (-E+EGF, FIG. 22)
Method: Weak a.c. electric fields hinder chemotaxis of “normal” breast epithelial cells. Experiments on combined chemotaxis and electrotaxis were performed with MCF10A cells in the same modified transmembrane assay in order to examine the effects of the induced a.c. electric field in hindering chemotaxis of non-transformed cells. MCF-10A cells are a non-transformed epithelial cell line derived from human fibrocystic mammary tissue. These cells are considered “normal” breast epithelial cells as they have a karyotype that is nearly diploid, are dependent on externally supplied growth factors for migration, and lack the ability to form tumors in nude mice. The growth factor EGF was used as an exogenous agent to induce MCF-10A cells to migrate in the modified transmembrane assay, as in the case of the SCP2 cells. No migration of MCF-10A cells was observed without EGF in the bottom chamber. […]
In one embodiment, MCF10A cells were cultured in Dulbecco's Modified Eagle's Media (DMEM) F12 containing 5% horse serum (HS), 20 ng/ml epidermal growth factor (EGF), 0.5 mg/ml hydrocortisone, 100 ng/ml cholrea toxin, 10 μg/ml insulin and 5 U/mL penicillin, and 5 mg/mL streptomycin at 37° C. in a humidified culture incubator supplied with 5% CO2. […] After allowing migration for 16 hours, cells were stained, photographed and counted as described for the preparation of the SCP2 cells. […]

SCP2 cells [2] = experiment: modified transmembrane assay, chemotaxis of SCP2 cells; settings: 100 ng/mL in lower chamber, 8 hours, no induced electric field; Control vs SDF control p=0.015, Control vs EGF control p=0.001 (FIG. 4)
Method: Highly metastatic breast cancer cells known as SCP2, a single cell population derived from MDA-MB-231 that is known to metastasize to the bone, were cultured in Dulbecco's Modified Eagle Medium (DMEM; Life Technologies, Gaithersburg, Md., USA), supplemented with 10% heat inactivated fetal bovine serum (FBS), 5 U/mL penicillin, and 5 mg/mL streptomycin. The SCP2 cells were placed in the upper chamber, and both compartments contained 0.1% FBS-DM. The entire apparatus (holder, coil, modified transmembrane chambers with Transwell inserts and cells) was placed in a 37° C. culture incubator with humidified air containing 5% CO2. The leads of the coil were connected to the function generator placed outside the incubator. The cells were allowed to migrate for 8 hours, and then were fixed and stained using Hema-3 stain kit according to the manufacturer's instructions. The number of migratory cells per membrane was then measured using light microscopy by counting the total number of cells in each of five contiguous images spanning radially outward (five fields) from the coil (FIG. 9). […]
In one embodiment, low passage SCP2 cells were cultured in Dulbecco's Modified Eagle's Media (DMEM) containing 10% fetal bovine serum (FBS) and 5 U/mL penicillin, and 5 mg/mL streptomycin at 37° C. in a humidified culture incubator supplied with 5% CO2. […] The cells were counted using a hemocytometer. […]

| Substance | actin filament polymerization in SCP2 cells (SCP2 cells [1]) | migration of MCF-10A cells (MCF-10A cells) | migration of SCP2 cells (chemotaxis) versus control (SCP2 cells [2]) |
| --- | --- | --- | --- |
| EGF: growth factor placed in the lower chamber to induce cell migration | polymerization of actin filaments can be observed at one end of some cells | strongly promotes migration | chemotaxis is well enabled |
| SDF-1α |  |  | chemotaxis is well enabled |
